Assays:
HRP Type VIA = molecular target: T1, HRP Type VIA (Armoracia rusticana, UniProt P00433); assay: Effect of PBBA amount on the luminol or isoluminol-H2O2-HRP chemiluminescent reaction (Example 1, part 1); format: biochemical, horseradish; settings: for Signal (no HRP) / Signal (with HRP): after 5 minutes
T1 sequence (P00433 31-338): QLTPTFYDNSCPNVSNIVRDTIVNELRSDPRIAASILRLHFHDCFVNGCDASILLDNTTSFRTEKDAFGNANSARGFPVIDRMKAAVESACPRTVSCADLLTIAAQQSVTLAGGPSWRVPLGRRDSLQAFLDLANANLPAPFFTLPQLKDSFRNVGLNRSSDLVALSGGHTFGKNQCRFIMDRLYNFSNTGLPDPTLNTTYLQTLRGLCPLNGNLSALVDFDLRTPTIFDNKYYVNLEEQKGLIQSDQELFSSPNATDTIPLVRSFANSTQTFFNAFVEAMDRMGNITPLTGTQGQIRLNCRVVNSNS
Description: PBBA was added in various concentrations (range 0.05µg to 0.5µg) to a luminol-H2O2 reaction in the presence and absence of HRP. […] These two solutions were combined and protected from light. The luminol-hydrogen peroxide reagent (100µl of a 1:10 dilution) was added to a cuvette together with either 10µl of HRP Type VI A (HRP, Sigma Chemical Co., 1:50,000 dilution) or as a control 10µl of Tris Buffer (0.1mol/l, pH 8.6), and various amounts of PBBA (Aldrich Chemical Co.), range 0.05µg-0.5µg in 0.1mol/l Tris, pH 8.6). The reagents were mixed and the light emission recorded after 5 minutes on a Berthold Biolumat LB9500C.
This experiment was repeated, replacing the luminol with isoluminol. […]

HRP Type VII = assay: PBBA enhancement with different peroxidase enzymes (Example 4); format: biochemical, horseradish; settings: for Signal Reagent with PBBA: 40µl of PBBA 0.01mg/ml
HRP Type VIII = assay: as above; format: biochemical, horseradish
Description: (§1) Stock solutions (1mg/ml in 0.1mol/l Tris buffer, pH 8.6) of horseradish peroxidase Type VII, Type VIII and Arthromyces ramosus peroxidase (Sigma) were prepared. The luminol-hydrogen peroxide reagent was prepared as described previously. Luminol-hydrogen peroxide reagent (100µl, 1:10 dilution), either 40µl of PBBA (0.01mg/ml in 0.1mol/l Tris buffer, pH 8.6) or as a control, 40µl of Tris buffer (0.1mol/l, pH 8.6), and 10µl of HRP Type VII (1:50,000 dilution, 2ng) were added to a cuvette. The reagents were mixed and the light emission was recorded after 5 minutes using a Berthold Biolumat LB9500C.
(§2) The above experiment was repeated and the HRP Type VII was replaced by HRP Type VIII (2ng) or Arthromyces ramosus peroxidase (20pg).

[1] = molecular target: T2, Arthromyces ramosus peroxidase (Arthromyces ramosus, UniProt P28313); assay: as above; format: biochemical
T2 sequence (P28313 21-364): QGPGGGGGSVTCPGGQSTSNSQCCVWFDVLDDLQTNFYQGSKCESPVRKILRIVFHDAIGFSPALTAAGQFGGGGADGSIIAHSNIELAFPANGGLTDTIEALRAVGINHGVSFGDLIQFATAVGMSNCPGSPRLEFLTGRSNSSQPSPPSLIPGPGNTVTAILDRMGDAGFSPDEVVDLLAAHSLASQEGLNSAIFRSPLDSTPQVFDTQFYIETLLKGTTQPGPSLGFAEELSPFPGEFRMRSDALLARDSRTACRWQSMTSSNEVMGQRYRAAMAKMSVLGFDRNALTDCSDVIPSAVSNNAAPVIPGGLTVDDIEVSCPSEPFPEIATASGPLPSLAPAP
Description: as §1, §2

HRP = molecular target: T3, HRP (Armoracia rusticana, UniProt P00433); assay: Enhanced chemiluminescent anti-oxidant assay using PBBA (Example 6); format: biochemical, horseradish
T3 construct: purchased Sigma Chemical Co
T3 sequence (P00433 31-338): T1 sequence (P00433 31-338)
Description: The luminol-peroxide reagent (100µl), PBBA (40µl, 1:100 dilution of 1 mg/ml) and HRP (10µl, 1:50,000 dilution of 1mg/ml stock) were mixed together and the light emission measured for 25 minutes. A sample of human serum (2µl, 1:10 dilution in 0.1 mol/l Tris buffer, pH 8.6) was added and the light emission measured for a further 75 minutes.

- light emission in the luminol-HRP-peroxidase reaction (HRP Type VIA; Column (a), result in words): enhances the light emission
- Signal: Background ratio (HRP Type VIA; Isoluminol, PBBA 0.05 µg): 2.1
- Signal (no HRP) (HRP Type VIA; Isoluminol, PBBA 0.05 µg): 7664
- Signal (with HRP) (HRP Type VIA; Isoluminol, PBBA 0.05 µg): 15,772
- Signal: Background ratio (HRP Type VIA; Isoluminol, PBBA 0.1 µg): 2.7
- Signal (no HRP) (HRP Type VIA; Isoluminol, PBBA 0.1 µg): 6114
- Signal (with HRP) (HRP Type VIA; Isoluminol, PBBA 0.1 µg): 16,553
- Signal: Background ratio (HRP Type VIA; Isoluminol, PBBA 0.2 µg): 11.9
- Signal (no HRP) (HRP Type VIA; Isoluminol, PBBA 0.2 µg): 5736
- Signal (with HRP) (HRP Type VIA; Isoluminol, PBBA 0.2 µg): 68,282
- Signal: Background ratio (HRP Type VIA; Isoluminol, PBBA 0.3 µg): 110.4
- Signal (no HRP) (HRP Type VIA; Isoluminol, PBBA 0.3 µg): 5613
- Signal (with HRP) (HRP Type VIA; Isoluminol, PBBA 0.3 µg): 619,880
- Signal: Background ratio (HRP Type VIA; Isoluminol, PBBA 0.4 µg): 147.0
- Signal (no HRP) (HRP Type VIA; Isoluminol, PBBA 0.4 µg): 5278
- Signal (with HRP) (HRP Type VIA; Isoluminol, PBBA 0.4 µg): 775,965
- Signal: Background ratio (HRP Type VIA; Luminol, PBBA 0.05 µg): 6.1
- Signal (no HRP) (HRP Type VIA; Luminol, PBBA 0.05 µg): 16,556
- Signal (with HRP) (HRP Type VIA; Luminol, PBBA 0.05 µg): 101,227
- Signal: Background ratio (HRP Type VIA; Luminol, PBBA 0.1 µg): 6.7
- Signal (no HRP) (HRP Type VIA; Luminol, PBBA 0.1 µg): 16,065
- Signal (with HRP) (HRP Type VIA; Luminol, PBBA 0.1 µg): 108,213
- Signal: Background ratio (HRP Type VIA; Luminol, PBBA 0.2 µg): 8.1
- Signal (no HRP) (HRP Type VIA; Luminol, PBBA 0.2 µg): 13,890
- Signal (with HRP) (HRP Type VIA; Luminol, PBBA 0.2 µg): 112,644
- Signal: Background ratio (HRP Type VIA; Luminol, PBBA 0.3 µg): 11.2
- Signal (no HRP) (HRP Type VIA; Luminol, PBBA 0.3 µg): 10,899
- Signal (with HRP) (HRP Type VIA; Luminol, PBBA 0.3 µg): 122,116
- Signal: Background ratio (HRP Type VIA; Luminol, PBBA 0.4 µg): 12.5
- Signal (no HRP) (HRP Type VIA; Luminol, PBBA 0.4 µg): 10,706
- Signal (with HRP) (HRP Type VIA; Luminol, PBBA 0.4 µg): 133,401
- Signal: Background ratio (HRP Type VIA; Luminol, PBBA 0.5 µg): 16.9
- Signal (no HRP) (HRP Type VIA; Luminol, PBBA 0.5 µg): 8,963
- Signal (with HRP) (HRP Type VIA; Luminol, PBBA 0.5 µg): 151,572
- Signal Reagent with PBBA (HRP Type VII; Blank (no peroxidase)): 27,820
- Signal Reagent with PBBA (HRP Type VII; HRP Type VII 2ng, after 5 minutes): 49,703
- Signal: Background (HRP Type VII; HRP Type VII, with PBBA): 1.8
- signal to background ratio (HRP Type VII; in all cases (HRP Type VII, Type VIII, Arthromyces ramosus peroxidase), result in words): improved in all cases
- Signal Reagent with PBBA (HRP Type VIII; HRP Type VIII 2ng, 40µl of PBBA 0.01mg/ml, after 5 minutes): 156,204
- Signal: Background (HRP Type VIII; HRP Type VIII, with PBBA): 5.6
- Signal Reagent with PBBA ([1]; Arthromyces ramosus peroxidase 20pg, 40µl of PBBA 0.01mg/ml, after 5 minutes): 58,208
- Signal: Background ([1]; Arthromyces ramosus peroxidase, with PBBA): 2.1
- Light units (HRP; Time 0 minutes, before serum): 5
- Light units (HRP; Time 10 minutes, before serum): 16
- Light units (HRP; Time 20 minutes, before serum): 68
- Light units (HRP; Time 25 minutes, serum added): 88
- Light units (HRP; Time 26 minutes, after human serum added): 3
- Light units (HRP; Time 30 minutes, after human serum added): 3
- Light units (HRP; Time 50 minutes, after human serum added): 5
- Light units (HRP; Time 60 minutes, after human serum added): 15
- Light units (HRP; Time 70 minutes, after human serum added): 49
- Light units (HRP; Time 80 minutes, after human serum added): 60
- Light units (HRP; Time 90 minutes, after human serum added): 81
- Light units (HRP; Time 100 minutes, after human serum added): 90
- lag after which the light emission returns to its original level (HRP; after addition of human serum (2µl, 1:10 dilution)): 34 min
SMILES: OB(O)c1ccc(Br)cc1 [PBBA, para-bromophenylboronic acid]
- background level of luminescence (HRP Type VIA; Column (b), result in words): reduces the background level of luminescence
- level of light output (HRP Type VII; any of the peroxidases tested (HRP Type VII, Type VIII, Arthromyces ramosus peroxidase), result in words): did not increase the level of light output

— EP0626016B1, “[…] […]” (BRITISH TECHNOLOGY GROUP LIMITED, priority 1992, dated 1993)
